Measured values published in US6271247A, “Hydrazide compounds” (Adir et Compagnie, priority 1998, dated 2001).
pIC50: −log10 of the molar value.

Key:
Y5 receptor = target: T1, Y5 receptor (Homo sapiens, UniProt Q15761); assay: In vitro affinity for NPY receptors, competition binding with [125I]-PYY on cell line expressing the Y5 sub-type; settings: radioligand [125I]-PYY 15 to 65 pM
T1 construct: host or cells: unnamed cell line expressing the Y5 sub-type
T1 sequence (Q15761 1-445): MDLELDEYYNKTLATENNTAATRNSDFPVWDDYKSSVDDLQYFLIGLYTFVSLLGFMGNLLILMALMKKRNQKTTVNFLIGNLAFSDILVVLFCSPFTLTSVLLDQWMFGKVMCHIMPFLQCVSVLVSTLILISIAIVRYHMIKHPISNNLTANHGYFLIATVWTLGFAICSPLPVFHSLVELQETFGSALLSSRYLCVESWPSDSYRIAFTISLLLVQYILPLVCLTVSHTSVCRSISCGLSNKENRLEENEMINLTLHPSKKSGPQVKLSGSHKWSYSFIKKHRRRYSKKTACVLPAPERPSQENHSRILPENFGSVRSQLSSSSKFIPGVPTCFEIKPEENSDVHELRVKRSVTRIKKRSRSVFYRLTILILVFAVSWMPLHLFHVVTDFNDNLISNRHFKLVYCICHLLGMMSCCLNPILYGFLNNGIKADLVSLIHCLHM
Description: The capacity of the compounds of the invention to bind to NPY receptors was measured on various cell lines, each expressing one of the receptor sub-types studied. Competition binding experiments were carried out using the peptide [^125 I]-PYY as radioligand at concentrations ranging from 15 to 65 pM. The non-specific fraction is measured in the presence of a concentration of 1 μM NPY. The cells are incubated for a period ranging from 1 to 2 hours depending upon the lines, and the radioactivity is collected after filtration over a GF/C filter treated with 0.1% PEI, before being measured.
The results are expressed as IC50.

obese ob/ob mouse = assay: Effect on food intake and weight development in the obese ob/ob mouse; assay type: in vivo, mouse (female ob/ob C57B1/6J); settings: 5 mg/kg IP, twice daily
Description: The compounds of the invention were administered in vivo to the obese ob/ob mouse in order to evaluate their influence on food intake and weight development. The animals used are 13- to 18-week-old female ob/ob C57B1/6J mice. They are divided into groups each comprising 4 animals per cage, the cages being fitted with a grating floor, and the mice having free access to food.
Before the experiments, the animals are conditioned for a period ranging from 2 to 3 weeks until their food consumption has stabilised. The experiments may be summarised as follows:
D -14 to D -7: conditioning
D -7 to D -3: measurement of the basal food intake
D0 to D +3: animals treated twice daily, the control groups being given the carrier D0 to D +4: daily measurement of food intake and body weight
The test products are dissolved, immediately before use, in water, 0.9% sodium chloride, propylene glycol or dimethyl sulphoxide, depending upon their solubility, and are administered intraperitoneally (IP), in a volume of 2.5 ml/kg.
The parameters measured are the weight of the feed troughs containing the food and the body weight.
The results are expressed as: percentage variation in food intake under treatment compared with the basal food intake; percentage variation in body weight between the first and last day of treatment.

O=C(NNC(=O)C1CCC(CNS(=O)(=O)c2ccc3ccccc3c2)CC1)c1ccccc1 (stereo not drawn) [Example 44, N2-({4-[(2-Benzoylhydrazino)carbonyl]cyclohexyl}methyl)-2-naphthalenesulphonamide]
pIC50 (Y5 receptor): 7.84
Food intake % variation (D1), Treated (compared with the basal food intake) (obese ob/ob mouse; D1, control -25.3): -75.2%
Body weight % variation (D4/D0) (obese ob/ob mouse; D4/D0): -6.0%
